The values that follow come from patent US20170306322A1, “METHODS AND MATERIALS FOR IDENTIFYING COMPOUNDS PROMOTING TRA[…]-THROUGH OF NONSENSE MUTATIONS” (Evolva SA, priority 2013, published 2017).

Each structure is given as a SMILES string. “Also recorded” adds a separate entry of the source. Some results are limits rather than exact numbers.

For experiment [1], the system named is APC premature stop codon C1450X. The experiment in a line: Yeast APC premature stop codon URA3/ADE2 reporter spot test on plates. The settings on record: 20 ug/ml G418, spot test, 3-5 days at 30° C., Pgal1-APCmut-URA3/ADE2 strain. In kind it is cell-based. From the text: A nucleic acid sequence containing a nonsense mutation was introduced into a yeast expression construct under the transcriptional control of a promoter e.g., an inducible promoter such as a galactose inducible promoter. The nucleic acid sequence containing the nonsense mutation was fused to a first marker gene such as URA3 and/or ADE2 (or other gene that results in an auxotroph if the gene is not transcribed and translated). The plasmid was integrated into an intergenic region in the genome of a modified yeast strain harboring deletion of ura3 and/or ade2 using conventional LiAc yeast transformation methods. Integrants were selected on media plates containing the antibiotic Hygromycin B or lacking histidine selecting for the marker present on the expression plasmid. Integrated strains were incubated with test compounds and plated on relevant growth media. Suitable test compounds include, for example, libraries of small molecules or expression libraries. […] Production of URA3 allowed the yeast cells to grow and form colonies on media lacking uracil after 2-4 days incubation at 30° C. Production of ADE2 conferred a white coloration of the yeast colonies and allowed the yeast cells to grow and form colonies on media plates lacking adenine after 2-4 days incubation at 30° C. […]
Next, the yeast strains were tested for read-through of the stop codon in the presence of the aminoglycoside G418. […]

Experiment [2] has as its system native stop codons in human genes (V-ATPase, Mdm2, ArhGAP1, DAT and PKCb, and striatin). The experiment in a line: Yeast URA3 reporter spot test with native stop codons of human genes. In kind it is cell-based. From the text:
In a similar set-up, read-through of 6 native stop codons in human genes (V-ATPase, Mdm2, ArhGAP1, DAT and PKCb, and striatin) was examined in front of the URA3 reporter system. […] A representative spot-test analysis is shown in FIG. 3B, where a strain containing the native stop codon of the human striatin gene was compared with the strain containing the APC premature stop codon mutant.

Experiment [3] deals with APC premature stop codon luciferase reporter. The experiment in a line: Dual Luciferase Assay, yeast APC premature stop codon Fluc reporter. The settings on record: haploid and diploid strains (EFSC2740), compared to vehicle only (DMSO), triplicate. The format is cell-based. The protocol: To assess functionality of the Fluc reporter system, a luciferase activity protocol for the Dual Luciferase® Assay kit (Promega) was optimized to be able to test yeast strains in 96-well format. A representative experiment is outlined here. The yeast were incubated for 30° C. overnight. The luciferase assay was performed according to manufacturer's recommended protocol. Briefly, yeast cells were resuspended in SCgal culture media and measured at A600. A 10 uL sample was transferred to a white-opaque-bottom 96-well plate, mixed with 50 uL of passive lysis buffer and incubated at room-temperature for 20-30 minutes with gentle shaking. Next, 50 uL of luciferase assay reagent II and 50 uL of Stop & Glo® reagent were added. The plate was read in a plate reader using a dual luciferase program. The remaining yeast culture was maintained at 30° C. and the luciferase assays was performed daily.
The results of the above Dual Luciferase® Assay experiment are shown in FIG. 4 (samples were tested in triplicate and data was analyzed by GraphPad® with error bars showing mean with 95% confidence interval). Here, 3 different integration sites for the Fluc reporter were analyzed both in a haploid assay strain and in a diploid setting in the presence of aminoglycosides G418 and paromomycin. […]

Experiment [4] has as its system P53 STOP (TAA198), P53 STOP (TAG221), P53 STOP (TGA196). Put plainly: Yeast p53 stop codon URA3 reporter suppression on SCgal-ura plates. In kind it is cell-based. The protocol: In addition to the APC stop-codon assay, other oncology targets including p53 were analyzed. Here, yeast strains were engineered with PGAL1-P53 STOP (TAA198)-URA3 (EFSC2231 and EFSC2233), PGAL1-P53 STOP (TAG221)-URA3 (EFSC2186 and EFSC2200) and PGAL1-P53 STOP (TGA196)-URA3 (EFSC2232 and EFSC2201) reporter integrated at the PRP5 locus. The strains were tested for suppression with G418 on SCgal-ura plates supplemented with increasing G418 concentrations.

Experiment [5] concerns premature stop codon in APC. The experiment in a line: Liquid suppression test, strain EFSC2686, APC premature stop codon URA3 reporter. In kind it is cell-based, yeast. The protocol:
Liquid suppression tests were also conducted with a different aminoglycoside, paromomycin. Read-through of the premature stop codon in APC was also observed after liquid cultivation of the strain in the presence of increasing concentrations of the aminoglycoside paromomycin. Here, strain EFSC2686 was grown in SCgal-ura media in the presence of increasing amounts of drug (0-500 uM) and growth rate was monitored on a daily basis. The presence of ≧250 uM paromomycin supports growth in SCgal media lacking uracil after 4 days incubation (see FIG. 3C).

Take `CN[C@@H]1[C@@H](O)[C@@H](O[C@@H]2[C@@H](O)[C@H](O[C@H]3O[C@H]([C@@H](C)O)[C@@H](O)[C@H](O)[C@H]3N)[C@@H](N)C[C@H]2N)OC[C@]1(C)O` [G418]: the “read-through of the APC premature stop codon (growth on SCgal-ura plates)” value in experiment [1] was “allows translation read-through of the APC gene; also recorded: triggered read-through of the stop codon”. Also, in experiment [2] (20 ug/ml G418, APC mutant versus 6 native stop codons), the “selectivity of suppression, premature versus native stop codons” value is “selective for premature stop codons”. Further, in experiment [2] (SCgal-uracil + 20 ug/ml G418, 6 native stop codons), the “read-through of native stop codons (growth on SCgal-uracil)” value was “no detectable read-through of stop codon was observed”. Moreover, the Firefly luciferase activity result in experiment [3] is “able to induce luciferase activity; also recorded: robust and significant Firefly luciferase activity”. Besides, the “order of suppression response by stop codon” value in experiment [4] (G418, SCgal-ura plates) was “TGA>TAG>TAA”. Further, the “expression of Ura3p, growth on SCgal-ura3 plates” value in experiment [4] (increasing G418 concentrations, TAA198, TAG221 and TGA196 strains, all cases) was “able to trigger expression of Ura3p”.

For `NC[C@@H]1O[C@H](O[C@H]2[C@@H](O)[C@H](O[C@@H]3[C@@H](O)[C@H](N)C[C@H](N)[C@H]3O[C@H]3O[C@H](CO)[C@@H](O)[C@H](O)[C@H]3N)O[C@@H]2CO)[C@H](N)[C@@H](O)[C@@H]1O` [paromomycin], in experiment [5] (liquid cultivation, FIG. 3C), the “suppression of the APC stop codon, production of URA3 protein” value is “leads to suppression of the APC stop codon and production of URA3 protein”. In addition, the “paromomycin concentration that supports growth in SCgal media lacking uracil” value in experiment [5] (strain EFSC2686, 0-500 uM tested, after 4 days incubation) was no less than 250 µM. Moreover, in experiment [3], the Firefly luciferase activity result was “able to induce luciferase activity”.
